The record followed here is article PMC6120924, “YesU from Bacillus subtilis preferentially binds fucosylated glycans” (Scientific Reports, 2018).

A word on the Kd: it is the equilibrium constant for the complex coming apart.

This assay has as its target T1, YesU (Bacillus subtilis, UniProt O31524).
T1 construct: captured by His tag on NTA chip
T1 sequence (O31524 1-220): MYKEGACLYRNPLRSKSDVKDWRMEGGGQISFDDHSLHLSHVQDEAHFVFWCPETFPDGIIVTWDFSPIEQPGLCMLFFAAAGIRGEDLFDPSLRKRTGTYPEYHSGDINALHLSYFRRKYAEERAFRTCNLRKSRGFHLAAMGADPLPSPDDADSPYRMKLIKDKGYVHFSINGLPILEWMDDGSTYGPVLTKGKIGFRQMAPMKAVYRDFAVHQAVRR
The assay can be described thus: SPR, steady state, single cycle, Biacore T100. It is filed as binding. Conditions: His-YesU on Ni-NTA chip; PBS-MgCl2 pH 7.4; 25 °C. From the text: SPR, steady state, single cycle, Biacore T100 on YesU
Background: SPR reads the build-up and loss of mass on a sensor chip optically.
With `CC(=O)N[C@H]1[C@H](O[C@H]2[C@@H](O)[C@@H](CO)O[C@@H](O[C@H]3[C@H](O)[C@@H](O)C(O)O[C@@H]3CO)[C@@H]2O)O[C@H](CO)[C@@H](O[C@@H]2O[C@H](CO)[C@H](O)[C@H](O)[C@H]2O)[C@@H]1O` (stereo partly drawn) [1H, Galβ1-4GlcNAcβ1-3Galβ1-4Glc], binding was put at a Kd of 440 ± 20 nM.

Compound `CC(=O)N[C@H]1[C@H](O[C@H]2[C@H](O)[C@@H](NC(C)=O)[C@H](O[C@H]3[C@H](O)[C@@H](NC(C)=O)C(O)O[C@@H]3CO)O[C@@H]2CO)O[C@H](CO)[C@@H](O[C@@H]2O[C@H](CO)[C@@H](O[C@@H]3O[C@H](CO)[C@@H](O[C@@H]4O[C@H](CO)[C@@H](O)[C@H](O)[C@H]4NC(C)=O)[C@H](O)[C@H]3NC(C)=O)[C@H](O)[C@H]2NC(C)=O)[C@@H]1O` (stereo partly drawn) [4D, GlcNAcβ1-4GlcNAcβ1-4GlcNAcβ1-4GlcNAcβ1-4GlcNAcβ 1-4GlcNAc] showed a dissociation constant (Kd) of 1130 ± 20 nM. For `CC(=O)N[C@H]1[C@H](O[C@H]2[C@@H](O)[C@@H](CO)O[C@@H](O[C@H]3[C@H](O)[C@@H](O)C(O)O[C@@H]3CO)[C@@H]2O)O[C@H](CO)[C@@H](O)[C@@H]1O[C@@H]1O[C@H](CO)[C@H](O)[C@H](O)[C@H]1O[C@@H]1O[C@@H](C)[C@@H](O)[C@@H](O)[C@@H]1O` (stereo partly drawn) [7A, Fucα1-2Galβ1-3GlcNAcβ1-3Galβ1-4Glc] the value was 1230 ± 20 nM; for `CC(=O)N[C@H]1[C@H](O[C@H]2[C@@H](O)[C@@H](CO)O[C@@H](O[C@H]3[C@H](O)[C@@H](O)C(O)O[C@@H]3CO)[C@@H]2O)O[C@H](CO)[C@@H](O[C@@H]2O[C@H](CO)[C@H](O)[C@H](O)[C@H]2O)[C@@H]1O[C@@H]1O[C@@H](C)[C@@H](O)[C@@H](O)[C@@H]1O` (stereo partly drawn) [7C, Galβ1-4(Fucα1-3)GlcNAcβ1-3Galβ1-4Glc], 140 ± 1 nM; for `CC(=O)N[C@H]1[C@H](O[C@H]2[C@@H](O)[C@@H](CO)O[C@@H](O[C@H]3[C@H](O[C@@H]4O[C@@H](C)[C@@H](O)[C@@H](O)[C@@H]4O)[C@@H](O)C(O)O[C@@H]3CO)[C@@H]2O)O[C@H](CO)[C@@H](O[C@@H]2O[C@@H](C)[C@@H](O)[C@@H](O)[C@@H]2O)[C@@H]1O[C@@H]1O[C@H](CO)[C@H](O)[C@H](O)[C@H]1O` (stereo partly drawn) [7E, Galβ1-3(Fucα1-4)GlcNAcβ1-3Galβ1-4(Fucα1-3)Glc], 340 ± 10 nM. Take `C[C@@H]1O[C@@H](O[C@H]2C(O)O[C@H](CO)[C@H](O)[C@@H]2O)[C@@H](O)[C@H](O)[C@@H]1O` (stereo partly drawn) [7F, Fucα1-2Gal]: the affinity, expressed as Kd, was 360 ± 10 nM. For `CC(=O)N[C@H]1C(O)O[C@H](CO)[C@@H](O[C@@H]2O[C@H](CO)[C@H](O)[C@H](O)[C@H]2O)[C@@H]1O[C@@H]1O[C@@H](C)[C@@H](O)[C@@H](O)[C@@H]1O` (stereo partly drawn) [7I, Galβ1-4(Fucα1-3)GlcNAc] the value was 150 ± 6 nM. For `CC(=O)N[C@H]1C(O)O[C@H](CO)[C@@H](O[C@@H]2O[C@@H](C)[C@@H](O)[C@@H](O)[C@@H]2O)[C@@H]1O[C@@H]1O[C@H](CO)[C@H](O)[C@H](O)[C@H]1O` (stereo partly drawn) [7J, Galβ1-3(Fucα1-4)GlcNAc] the value was 420 ± 4 nM. For `CC(=O)N[C@H]1[C@@H](O[C@H]2[C@@H](O)[C@@H](CO)OC(O)[C@@H]2O[C@@H]2O[C@@H](C)[C@@H](O)[C@@H](O)[C@@H]2O)O[C@H](CO)[C@H](O)[C@@H]1O` (stereo partly drawn) [7K, GalNAcα1-3(Fucα1-2)Gal] the value was 7630 ± 300 nM.

Consider `C[C@@H]1O[C@@H](O[C@H]2C(O)O[C@H](CO)[C@H](O)[C@@H]2O[C@H]2O[C@H](CO)[C@H](O)[C@H](O)[C@H]2O)[C@@H](O)[C@H](O)[C@@H]1O` (stereo partly drawn) [7M, Galα1-3(Fucα1-2)Gal], for which the dissociation constant Kd amounted to 190 ± 3 nM. For `CC(=O)N[C@H]1C(O)O[C@H](CO)[C@@H](O[C@@H]2O[C@H](CO)[C@H](O)[C@H](O)[C@H]2O[C@@H]2O[C@@H](C)[C@@H](O)[C@@H](O)[C@@H]2O)[C@@H]1O[C@@H]1O[C@@H](C)[C@@H](O)[C@@H](O)[C@@H]1O` (stereo partly drawn) [7N, Fucα1-2Galβ1-4(Fucα1-3)GlcNAc] the value was 340 ± 2 nM; for `CC(=O)N[C@H]1C(O)O[C@H](CO)[C@@H](O[C@@H]2O[C@H](CO)[C@H](O)[C@H](O)[C@H]2O[C@@H]2O[C@@H](C)[C@@H](O)[C@@H](O)[C@@H]2O)[C@@H]1O` (stereo partly drawn) [7O, Fucα1-2Galβ1-4GlcNAc], 340 ± 4 nM; for `CC(=O)N[C@H]1C(O)O[C@H](CO)[C@@H](O[C@@H]2O[C@@H](C)[C@@H](O)[C@@H](O)[C@@H]2O)[C@@H]1O[C@@H]1O[C@H](CO)[C@H](O)[C@H](OS(=O)(=O)O)[C@H]1O` (stereo partly drawn) [8A, SO3-3Galβ1-3(Fucα1-4)GlcNAc], 2070 ± 20 nM.

`CC(=O)N[C@H]1[C@H](O[C@H]2[C@@H](O)[C@@H](CO)O[C@@H](O[C@H]3[C@H](O)[C@@H](O)C(O)O[C@@H]3CO)[C@@H]2O)O[C@H](CO)[C@@H](O[C@@H]2O[C@H](CO)[C@H](O)[C@H](O)[C@H]2O[C@@H]2O[C@@H](C)[C@@H](O)[C@@H](O)[C@@H]2O)[C@@H]1O[C@@H]1O[C@@H](C)[C@@H](O)[C@@H](O)[C@@H]1O` (stereo partly drawn) [8H, Fucα1-2Galβ1-4(Fucα1-3)GlcNAcβ1-3Galβ1-4Glc] registered a Kd of 1140 ± 30 nM. For `CC(=O)NC1C(OC2C(O)C(COC3OC(CO)C(OC4OC(CO)C(O)C(OC5OC(CO)C(OC6OC(CO)C(O)C(O)C6O)C(O)C5NC(C)=O)C4O)C(OC4OC(C)C(O)C(O)C4O)C3NC(C)=O)OC(OC3C(CO)OC(O)C(O)C3O)C2O)OC(CO)C(OC2OC(CO)C(O)C(O)C2O)C1O` (stereo not drawn) [8N, Galβ1-3GlcNAcβ1-3Galβ1-4(Fucα1-3)GlcNAcβ1-6(Galβ1-3 GlcNAcβ1-3)Galβ1-4Glc] the value was 240 ± 20 nM.
